# From patent publication EP3818828A1 (priority 2019, dated 2021)
# Like-named read-outs stand apart in the source and are kept apart here.
# Experiments:
# Format in all cases: cell-based
# [1] = tested on: Exserohilum turcicum; assay: Ex vivo mycelial growth inhibition, growth rate method; conditions: 1 mg/mL
# Excerpt: (§1) 3-(3',4'-methylenedioxy phenyl)-N-n-propyl acrylamide (at a purity of 99%), 3-(3',4'-methylenedioxy phenyl)-piperidine acrylate (at a purity of 99%), the control agents, 96.5% of chlorothalonil technical (non-systemic broad-spectrum fungicide), 97.2% of carbendazim technical (systemic broad-spectrum fungicide), 97.0% of procymidone technical (systemic fungicide), 96.0% of dimethomorphtechnical ((E,Z)-4-[3-(4-chlorphenyl)3-(3,4-dimethoxy phenyl)acryloyl]morpholine, systemic fungicide), 97.0% of azoxystrobin technical (systemic broad-spectrum fungicide).
# (§2) The inhibition of samples for testing on the mycelial growth of plant pathogenic fungi for testing is determined with a growth rate method. 3-(3',4'-methylenedioxy phenyl)-N-n-propyl acrylamide, 3-(3',4'-methylenedioxy phenyl)-piperidine acrylate and five control agents are dissolved with dimethyl sulfoxide (DMSO), then formulated at 5-7 concentrations of different gradients for test following the trial test results, with the same concentration of DMSO as the control solvent, each treatment in triplicate. Fungal cakes with a diameter of 4 mm are taken from the edge of the colony, inoculated into the center of a PDA plate containing different agents of different concentrations and the DMSO control, with one piece of fungal cake inoculated in each plate (with a diameter of […]), and incubated in a constant temperature incubator at a temperature of 22±1.5°C. 7 days later (10-20 days may be needed for some pathogenic fungi), the diameter of the colony is measured with a cross over method according to the mycelial growth profile of the control pathogenic fungi, then the inhibition rate of mycelial growth is calculated.
# (§3) The computational formula is as below: the inhibition rate of mycelial growth (%) = [(the diameter of the control colony - the diameter of the treated colony)/the diameter of the control colony] × 100.
# (§4) The inhibition results of each agent at a concentration of 1 mg/mL on the mycelial growth of plant pathogenic fungi are shown in Tables 1 and 2.
# [2] = tested on: Rhizoctonia solani; assay: as above; conditions: Rhizoctonia solani; 1 mg/mL
# Excerpt: as §1, §2, §3, §4
# [3] = tested on: Colletotrichum capsici; assay: as above; conditions: 1 mg/mL; for inhibition at 1000 µg/mL: Colletotrichum truncatum
# Excerpt: as §1, §2, §3, §4
# [4] = tested on: Botryosphaeria berengeriana; assay: as above; conditions: 1 mg/mL
# Excerpt: as §1, §2, §3, §4
# [5] = tested on: Coniella diplodiella; assay: as above; conditions: 1 mg/mL
# Excerpt: as §1, §2, §3, §4
# [6] = tested on: Mycosphaerlla melonis; assay: as above; conditions: 1 mg/mL
# Excerpt: as §1, §2, §3, §4
# [7] = tested on: F. oxysporum f. sp. vasinfectum; assay: as above; conditions: 1 mg/mL; for inhibition at 1000 µg/mL: Fusarium oxysporum
# Excerpt: as §1, §2, §3, §4
# [8] = tested on: Valsa mali; assay: as above; conditions: 1 mg/mL
# Excerpt: as §1, §2, §3, §4
# [9] = tested on: Sclerotinia sclerotiorum; assay: as above; conditions: 1 mg/mL
# Excerpt: as §1, §2, §3, §4
# [10] = tested on: Botrytis cinerea; assay: as above; conditions: 1 mg/mL
# Excerpt: as §1, §2, §3, §4
# [11] = tested on: C. gossypii; assay: as above; conditions: 1 mg/mL; for Average Diameter of the Colony: C. gossypii; for inhibition at 1000 µg/mL: Colletotrichum gossypii, C. cossypii, read-out: Inhibition Rate
# Excerpt: as §1, §2, §3, §4
# [12] = tested on: Botryosphaeriana berengeriana; assay: as above; conditions: 1 mg/mL
# Excerpt: as §1, §2, §3, §4
# [13] = tested on: F. oxysporum f. sp. lini; assay: as above; conditions: 1 mg/mL; for inhibition at 1000 µg/mL: Fusarium oxysporum
# Excerpt: as §1, §2, §3, §4
# [14] = tested on: Gaeumannomyces graminis var. graminis and G. graminis var. tritici; assay: as above; conditions: 1 mg/mL
# Excerpt: as §1, §2, §3, §4
# [15] = tested on: Phytophthora capsici; assay: as above; conditions: Phytophthora capsici; 1 mg/mL
# Excerpt: as §1, §2, §3, §4
# [16] = tested on: Pythium aphanidermatum; assay: as above; conditions: 1 mg/mL
# Excerpt: as §1, §2, §3, §4
# [17] = tested on: F. verticillioide; assay: as above; conditions: 1 mg/mL
# Excerpt: as §1, §2, §3, §4
# [18] = tested on: Thanatephorus cucumeris; assay: as above; conditions: 1 mg/mL
# Excerpt: as §1, §2, §3, §4
# [19] = tested on: Pyricularia grisea; assay: microbe, parasite or virus in culture; conditions: for Average Diameter of the Colony: 1 mg/mL; for inhibition at 1000 µg/mL: read-out: Inhibition Rate
# [20] = tested on: Fusarium graminearum; assay: microbe, parasite or virus in culture
# [21] = tested on: F. graminearum; assay: microbe, parasite or virus in culture; conditions: for Average Diameter of the Colony: F. graminearum, 1 mg/mL; for inhibition at 1000 µg/mL: Fusarium graminearum, read-out: Inhibition Rate
# [22] = tested on: F. graminearum; assay: microbe, parasite or virus in culture
# [23] = tested on: Phytophthora infestans; assay: microbe, parasite or virus in culture
# [24] = tested on: Phytophthora infestans; assay: microbe, parasite or virus in culture; conditions: 1 mg/mL
# [25] = tested on: Phytophthora infestans; conditions: Phytophthora infestas; 1 mg/mL
# [26] = tested on: Exserohilum turcicum; assay: Toxicity determination (EC50) on mycelial growth, growth rate method
# Description: as §2
# (§5) 3-(3',4'-methylenedioxy phenyl)-piperidine acrylate, the control agents 96.5% of chlorothalonil technical and 97.0% of procymidone technical. Agents for testing and the control agents chlorothalonil and procymidone are treated at 5-8 concentrations of different gradients on the basis of preliminary tests to ensure that the inhibition rates for treatments at all the concentrations are between 10% and 90%.
# (§6) For specific determination methods, with reference to Embodiment 1. The concentration of active ingredients in the culture medium is used as the testing concentration to calculate the toxic regression equation (Y=bx+a) and the median inhibition concentration EC50, 95% confidence limit, and relative toxicity. Relative toxicity (compared to chlorothalonil) = EC50 of chlorothalonil / EC50 of 3-(3',4'-methylenedioxy phenyl)-piperidine acrylate, and relative toxicity (compared to procymidone) = EC50 of procymidone / EC50 of 3-(3',4'-methylenedioxy phenyl)-piperidine acrylate.
# [27] = tested on: Colletotrichum capsici; assay: as above
# Description: as §2, §5, §6
# [28] = tested on: Valsa mali; assay: as above
# Description: as §2, §5, §6
# [29] = tested on: Sclerotinia sclerotiorum; assay: as above
# Description: as §2, §5, §6
# [30] = tested on: Botrytis cinerea; assay: as above
# Description: as §2, §5, §6
# [31] = tested on: Fusarium graminearum; assay: microbe, parasite or virus in culture; conditions: for Average Diameter of the Colony: 1 mg/mL; for inhibition at 1000 µg/mL: read-out: Inhibition Rate
# [32] = tested on: Magnaporthe grisea; assay: microbe, parasite or virus in culture
# [33] = EC50 of chlorothalonil / EC50 of agent
# [34] = EC50 of procymidone / EC50 of agent
# [35] = median inhibition concentration
smiles,measurement,setting,value
"N#Cc1c(Cl)c(Cl)c(Cl)c(C#N)c1Cl [Chlorothalonil, chlorothalonil]",Average Diameter of the Colony,[1],1.41 cm
same,inhibition at 1000 µg/mL,[1],77.3%
same,Average Diameter of the Colony,[2],0.00 cm
same,inhibition at 1000 µg/mL,[2],100%
same,Average Diameter of the Colony,[3],1.95 cm
same,inhibition at 1000 µg/mL,[3],71.2%
same,Average Diameter of the Colony,[4],2.11 cm
same,inhibition at 1000 µg/mL,[4],69%
same,Average Diameter of the Colony,[5],0.00 cm
same,inhibition at 1000 µg/mL,[5],100%
same,Average Diameter of the Colony,[6],2.16 cm
same,inhibition at 1000 µg/mL,[6],74.9%
same,Average Diameter of the Colony,[7],2.45 cm
same,inhibition at 1000 µg/mL,[7],66.2%
same,Average Diameter of the Colony,[8],1.65 cm
same,inhibition at 1000 µg/mL,[8]; Cytospora mali,79.1%
same,Average Diameter of the Colony,[9],0.00 cm
same,inhibition at 1000 µg/mL,[9],100%
same,Average Diameter of the Colony,[10],1.16 cm
same,inhibition at 1000 µg/mL,[10],84.5%
same,Average Diameter of the Colony,[11],1.45 cm
same,inhibition at 1000 µg/mL,[11],73.2%
same,Average Diameter of the Colony,[12],0.94 cm
same,inhibition at 1000 µg/mL,[12],83.5%
same,Average Diameter of the Colony,[13],3.73 cm
same,inhibition at 1000 µg/mL,[13],58.6%
same,Average Diameter of the Colony,[14],2.51 cm
same,inhibition at 1000 µg/mL,[14],64.9%
same,Average Diameter of the Colony,[15],0.91 cm
same,inhibition at 1000 µg/mL,[15],82.8%
same,Average Diameter of the Colony,[16],1.14 cm
same,inhibition at 1000 µg/mL,[16],83%
same,Average Diameter of the Colony,[17],0.87 cm
same,inhibition at 1000 µg/mL,[17],74.3%
same,Average Diameter of the Colony,[18],1.05 cm
same,inhibition at 1000 µg/mL,[18],87.8%
same,Average Diameter of the Colony,[19],1.63 cm
same,inhibition at 1000 µg/mL,[19],81.9%
same,Relative Toxicity (Compared to Chlorothalonil),[20]; [33],1.00
same,Relative Toxicity (Compared to Procymidone),[20]; [34],0.31
same,EC50,[20]; [35],469 µg/mL
same,Average Diameter of the Colony,[21],1.92 cm
same,inhibition at 1000 µg/mL,[21],77.7%
same,Relative Toxicity (Compared to Chlorothalonil),[22]; [33],1.00
same,Relative Toxicity (Compared to Procymidone),[22]; [34],3.75
same,EC50,"[22]; Fusarium graminearum, median inhibition concentration",227 µg/mL
same,Relative Toxicity (Compared to Chlorothalonil),[23]; [33],1.00
same,Relative Toxicity (Compared to Procymidone),[23]; [34],6.78
same,EC50,[23]; [35],115 µg/mL
same,Average Diameter of the Colony,[24],0.20 cm
same,Average Diameter of the Colony,[25],1.78 cm
same,Relative Toxicity (Compared to Chlorothalonil),[26]; [33],1.00
same,Relative Toxicity (Compared to Procymidone),[26]; [34],0.26
same,EC50,"[26]; median inhibition concentration, read-out: EC50",411 µg/mL
same,EC50,"[27]; Colletotrichum truncatum, median inhibition concentration, read-out: EC50",404 µg/mL
same,Relative Toxicity (Compared to Chlorothalonil),[27]; [33],1.00
same,Relative Toxicity (Compared to Procymidone),[27]; [34],1.28
same,EC50,"[28]; Cytospora mali, median inhibition concentration, read-out: EC50",418 µg/mL
same,Relative Toxicity (Compared to Chlorothalonil),[28]; [33],1.00
same,Relative Toxicity (Compared to Procymidone),[28]; [34],1.02
same,Relative Toxicity (Compared to Chlorothalonil),[29]; [33],1.00
same,Relative Toxicity (Compared to Procymidone),[29]; [34],1.13
same,EC50,[29]; [35],62.7 µg/mL
same,Relative Toxicity (Compared to Chlorothalonil),[30]; [33],1.00
same,Relative Toxicity (Compared to Procymidone),[30]; [34],0.45
same,EC50,[30]; [35],177 µg/mL
same,Average Diameter of the Colony,[31],0.71 cm
same,inhibition at 1000 µg/mL,[31],86.7%
same,Relative Toxicity (Compared to Chlorothalonil),[32]; [33],1.00
same,Relative Toxicity (Compared to Procymidone),[32]; [34],0.71
same,EC50,"[32]; Pyricularia oryzae, median inhibition concentration",436 µg/mL
"COC(=O)Nc1nc2ccccc2[nH]1 [Carbendazim, carbendazim]",Average Diameter of the Colony,[1],9.00 cm
same,inhibition at 1000 µg/mL,[1],0%
same,Average Diameter of the Colony,[2],0.00 cm
same,inhibition at 1000 µg/mL,[2],100%
same,Average Diameter of the Colony,[3],0.00 cm
same,inhibition at 1000 µg/mL,[3],100%
same,Average Diameter of the Colony,[5],0.00 cm
same,inhibition at 1000 µg/mL,[5],100%
same,Average Diameter of the Colony,[6],0.00 cm
same,inhibition at 1000 µg/mL,[6],100%
same,Average Diameter of the Colony,[7],0.00 cm
same,inhibition at 1000 µg/mL,[7],100%
same,Average Diameter of the Colony,[9],0.00 cm
same,inhibition at 1000 µg/mL,[9],100%
same,Average Diameter of the Colony,[10],0.00 cm
same,inhibition at 1000 µg/mL,[10],100%
same,Average Diameter of the Colony,[11],0.00 cm
same,inhibition at 1000 µg/mL,[11],100%
same,Average Diameter of the Colony,[13],0.00 cm
same,inhibition at 1000 µg/mL,[13],100%
same,Average Diameter of the Colony,[15],0.00 cm
same,inhibition at 1000 µg/mL,[15],100%
same,Average Diameter of the Colony,[16],0.00 cm
same,inhibition at 1000 µg/mL,[16],100%
same,Average Diameter of the Colony,[17],0.00 cm
same,inhibition at 1000 µg/mL,[17],100%
same,Average Diameter of the Colony,[18],0.00 cm
same,inhibition at 1000 µg/mL,[18],100%
same,Average Diameter of the Colony,[19],0.00 cm
same,inhibition at 1000 µg/mL,[19],100%
same,Average Diameter of the Colony,[21],1.17 cm
same,inhibition at 1000 µg/mL,[21],87%
same,Average Diameter of the Colony,[24],6.80 cm
same,Average Diameter of the Colony,[25],0.00 cm
same,Average Diameter of the Colony,[31],0.00 cm
same,inhibition at 1000 µg/mL,[31],100%
